Source: a melting point compilation (Tetko et al.; mined from patent text by program, amines drawn as free bases though some values may be those of a salt)

COC(=O)CCC(C)C1CCC2C3CC=C4CC(OC(C)=O)CC(OC(C)=O)C4(C)C3CCC12C (stereo unspecified) gave a melting point of 108 to 113 °C.
With Cc1ccc(S(=O)(=O)c2ccc(N3CCNCC3)cc2N)cc1 the melting point was 102 to 106 °C.
For O=C(O)c1cn(C2CC2)c(-c2ccc3c(c2)OCO3)cc1=O, the melting point was 211 to 212 °C.
Work on O[C@@H]1CNCC[C@H]1Oc1ccc(F)cc1 (relative stereo) yielded a melting point of 121 to 123 °C.
For CC(C)c1c(-c2ccccc2)[nH]c2nccnc12, the melting point was 216 to 218 °C.
With CCOC(=O)CCSc1nnsc1-c1ccc(Cl)cc1 the melting point was 71.5 to 73.5 °C.
Compound CCS(=O)(=O)Nc1cc(C2CCCCC2)cc2c1CCCC2c1c[nH]cn1 (stereo unspecified) has a melting point of 207 to 209 °C.
With CN(Cc1ccccc1)[C@@H](CC(N)=O)C(=O)N[C@@H](Cc1ccccc1)[C@H](O)C(=O)N1CCC[C@H]1C(=O)NC(C)(C)C the melting point was 97 to 100 °C.
CC(C)CCNC(Nc1cc(C(F)(F)F)cc(C(F)(F)F)c1)=C(C#N)C(=O)OC(C)(C)C gave a melting point of 128 to 129 °C.
In the case of N#CCN1CCC(N2CCN(CCCN3CCCCC3)C2=C(C#N)C#N)CC1, the melting point is reported as 135 to 136 °C.
For O=S(=O)(NCC1CCN(C[C@H]2COc3ccc4[nH]ccc4c3O2)CC1)c1ccccn1, the melting point was 86 to 88 °C.
Work on CC1(c2n[nH]c(=O)o2)CC1 yielded a melting point of 68 to 70 °C.
Work on CC(=O)N(C(=NC1CCCCC1)ON=C(C)C)C1CCCCC1 yielded a melting point of 74 to 78 °C.
Compound COC(=O)[C@@H]1CN(C(=O)OC(C)(C)C)CC[C@@H]1C(=O)O (relative stereo) has a melting point of 129 to 136 °C.
BrC/C(=C(\CBr)c1ccccc1)c1ccccc1 gave a melting point of 98 °C.
N#CCCNC(=O)c1n[nH]cc1NC(=O)c1ccc(-c2ccccc2)o1 gave a melting point of 228 to 230 °C.
For CCCCCS(=O)(=O)NC(=O)CCc1cc(OC(C)C)nn1Cc1ccc(F)cc1F, the melting point was 107 to 108 °C.
Work on Nc1ccc(Cl)c(O)c1 yielded a melting point of 115 to 117 °C.
In the case of COc1cc2ncc(C#N)c(Nc3cccc(C#N)c3)c2cc1OC, the melting point is reported as 285 to 288 °C.
With COc1cc2nc(N3CCc4ccc(NC(C)=O)cc4C3)nc(N)c2cc1OC the melting point was 243 to 244 °C.
N#CC1=CSCC1Nc1c(Cl)cccc1Cl (stereo unspecified) gave a melting point of 170 to 173 °C.
Work on N=C(Nc1ccc(Cl)cc1)Nc1ncccc1Cc1ccccc1F yielded a melting point of 175 to 176 °C.
CC(C)n1c(=O)nc(-c2ccc3c(c2)CCO3)c2cc3c(cc21)OCO3 gave a melting point of 206 to 209 °C.
With COc1ccccc1NC(=O)Nc1nc(Nc2ccccc2-c2ccccc2)nc(N(CCC(=O)O)Cc2cc(C(F)(F)F)cc(C(F)(F)F)c2)n1 the melting point was 132 to 135 °C.
CN(C)c1ncnc2c1ncn2C1CC(F)C(CO)O1 (stereo unspecified) gave a melting point of 105 to 107 °C.
With CC(C)(C)c1cc(-c2c[nH]c(=O)[nH]2)cc(C(C)(C)C)c1O the melting point was > 260 °C.
Work on Oc1ccccc1-c1ccccc1-c1cccc2[pH]c3ccccc3c12 (stereo unspecified) yielded a melting point of 152 to 155 °C.
Work on CNC(Cc1ccccc1NC(=O)C(C)(C)C)c1ccccc1 (stereo unspecified) yielded a melting point of 85 to 86 °C.
C=CCNc1nc(N)nc(-c2ccccc2)c1-c1ccc(=O)n(C(C)C)n1 showed a melting point of 192 °C.
With O=C(Nc1ccc(-n2nc(C3CCCO3)cc2C(F)(F)F)cc1)c1ccncc1F (stereo unspecified) the melting point was 116 to 118 °C.
Compound CC(C)OC(=O)C=CC(=O)NC(N)=O has a melting point of 113 to 114 °C.
Compound O=[N+]([O-])c1ccc(OCc2nnco2)cc1 has a melting point of 125 to 126 °C.
O=C(O)CCCCSc1nc(-c2ccccc2)c(-c2ccccc2)[nH]1 gave a melting point of 190 to 195 °C.
COC(=O)CC[C@@H](NC(=O)[C@@H](NC(=O)OC(C)(C)C)[C@@H](C)OCc1ccccc1)C(N)=O showed a melting point of 131 to 132 °C.
Work on CC(=O)C1(c2ccc(Br)cc2)C=CC=CC1 (stereo unspecified) yielded a melting point of 126 to 128 °C.
In the case of OCc1cc(Cl)c(F)cn1, the melting point is reported as 50 to 52 °C.
O=C(NCCO)C(Oc1ccc(F)c(C(F)(F)F)c1)c1ccc(Cl)cc1 (stereo unspecified) showed a melting point of 95 °C.
For N#CC(=C(Nc1cc(C(F)(F)F)cc(C(F)(F)F)c1)NC1CCC1)S(=O)(=O)c1ccc(Cl)cc1, the melting point was 190 to 193 °C.
Compound CCCN1CC(OCC2CC2)(C(F)(F)F)c2cc(Cl)ccc2NC1=O (stereo unspecified) has a melting point of 156 to 158 °C.
Nc1cccc(-c2ccc(CCN3CCN(C(=O)Cc4ccc(Cl)cc4)CC3)cc2)n1 showed a melting point of 205 °C.
For Cc1nc2c(O)cccc2c(=O)n1C1CCC(=O)NC1=O (stereo unspecified), the melting point was 266 to 268 °C.
COC(OC)c1cnc(-c2ccccc2)nc1N gave a melting point of 116 to 118 °C.
For N#Cc1ccc(-c2cc(C#N)cc(Cn3cncn3)c2)cc1, the melting point was 154 to 155 °C.
Compound CN(CC(C)(C)[N+](=O)[O-])c1ccc(N(C)CC(C)(C)[N+](=O)[O-])cc1 has a melting point of 119 to 121 °C.
Compound CCOC(=O)c1c(Nc2ccncc2)c2ccc(Cl)cc2n1CC(=O)N(CC)CC has a melting point of 212 to 214 °C.
With Cn1cc(C2=C(c3c4n(c5ccccc35)CCC4)C(=O)NC2=O)c2ccccc21 the melting point was 260 to 270 °C.
Compound COC(=O)c1c(C)nc(CC(C)C)c(CN)c1-c1ccc(C)cc1 has a melting point of 56 to 57 °C.
In the case of Cc1ccc(N)c(C(=O)CS(C)=O)c1 (stereo unspecified), the melting point is reported as 145 to 147 °C.
Cc1ccc(S(=O)(=O)OCCn2c(=NC(=O)C(F)(F)F)sc3cc(C(F)(F)F)ccc32)cc1 gave a melting point of 163 °C.
Compound COc1ccccc1NC(=O)Nc1nc2c(s1)CN(C)CC2 has a melting point of 201 to 203 °C.
Cc1nc2cc(-c3ccco3)ccc2o1 showed a melting point of 60 °C.
With CCOC(=O)C1C(C=C(Br)Br)C1(C)C (stereo unspecified) the melting point was 110 °C.
Work on Cc1cc2c(-c3ccccc3Cl)c(NC(=O)Nc3cccc(C(F)(F)F)c3)c(=O)n(C)c2cc1C yielded a melting point of 175 to 176 °C.
O=CN(O)C(CO)CS(=O)(=O)c1ccc(Oc2ccc(OC(F)(F)F)cc2)cc1 (stereo unspecified) gave a melting point of 115 to 117 °C.
c1csc(-c2nc3cnccc3[nH]2)c1 showed a melting point of 265 to 268 °C.
Cc1cc(N2CCN(CCc3ccccc3)C2=O)sc1C(=O)NCc1cccnc1 showed a melting point of 95 to 97 °C.
In the case of N#Cc1nn(-c2c(Cl)cc(C(F)(F)F)cc2Cl)c(N2CCCCC2)c1S(=O)(=O)C(F)(F)F, the melting point is reported as 153 to 155 °C.
With CCOC(=O)c1cnc2c(C(=O)Nc3cc4cccnc4cc3OC)csc2c1 the melting point was 265 to 270 °C.
Work on N=C(NO)C1(c2ccccc2Br)CC1 yielded a melting point of 164 to 167 °C.
Cc1nc(N2CCN(CCCC(F)(F)F)C2=O)sc1C(=O)NCc1ccncc1 gave a melting point of 178 to 181 °C.
For Cn1c2ccccc2c2c(=O)[nH]ccc21, the melting point was 242 °C.
With Cc1ncccc1C(=O)NCC1CCN(C[C@H]2COc3cccc(Cl)c3O2)CC1 the melting point was 147 to 149 °C.
C#Cc1cccc(Oc2nc(Cl)nc(Oc3cccc(C#C)c3)n2)c1 gave a melting point of 121 to 125 °C.
CCCCCCCCCCCCCCCCCCOc1ccccc1CC(=O)CO showed a melting point of 59 to 60 °C.
Compound O=c1cc(COC2CCCCO2)occ1OCCCCCBr (stereo unspecified) has a melting point of 140 °C.
Work on CSc1nc(Cl)c(-c2ccc(C)cc2)c(NS(=O)(=O)c2ccc(C(C)(C)C)cc2)n1 yielded a melting point of 178 to 182 °C.
Work on CNC1(c2ccccc2)CC=C(c2[nH]c3ccccc3c2CCc2ccncc2)CC1 (stereo unspecified) yielded a melting point of 168 to 172 °C.
With O=[N+]([O-])c1ccc(NCC23CCCN2CCC3)c2ccccc12 the melting point was 143 to 144 °C.
For CN1CCC(NCc2ccccc2)(c2ccccc2)C(O)C1 (stereo unspecified), the melting point was 162 to 164 °C.
With CC(C)CC(C#N)NC(=O)C1CCCCC1NC(=O)OCc1ccccc1 (stereo unspecified) the melting point was 104 to 106 °C.
CCc1cc(C(=O)O)c(Nc2ccccc2[N+](=O)[O-])s1 gave a melting point of 189 to 191 °C.
CC(C)[C@H](C[C@H](O)[C@H](C)NC(=O)OC(C)(C)C)C(=O)NCc1cccnc1 gave a melting point of 147 to 149 °C.
Compound CN1CCC(=C2c3cc(Br)n(C)c3CCn3ccnc32)CC1 has a melting point of 179 °C.
With FC(F)(F)Sc1c(Cl)c(Cl)c(CBr)c(Cl)c1Cl the melting point was 117 to 118 °C.
COc1ccc(-c2nnn(-c3ccc(Cl)cc3Cl)c2N)cc1 showed a melting point of 149 to 151 °C.
With O=C(c1ccc(Cl)cc1)C(Cc1ccc(Cl)cc1)c1cccnc1 (stereo unspecified) the melting point was 98 to 99 °C.
O=c1nc(-c2cccc(S(=O)CCc3ccccc3)n2)sc2ccccc12 (stereo unspecified) showed a melting point of 164 to 166 °C.
With CCN(CC)CC(O)CNC(=O)c1c(OC)c2cc(C)ccc2n1-c1ccccc1 (stereo unspecified) the melting point was 126 to 128 °C.
Work on COC(=O)CCCCCCNC(=O)C(CO)NS(=O)(=O)c1ccc(Cl)cc1 (racemic) yielded a melting point of 78 to 81 °C.
Work on COC(=O)N1CCC(=O)C(C2(NO)OCCO2)C1 (stereo unspecified) yielded a melting point of 162 to 165 °C.
COc1cccc(Cc2cc3cccc(-c4cccc(C(=O)NC5CCOCC5)c4)c3o2)c1 gave a melting point of 146 to 147 °C.
For CCCCCCCCCCOc1ccc(-c2ccccc2)cc1, the melting point was 70 to 73 °C.
Compound Cc1[nH]c(=O)ccc1C(=O)c1cccs1 has a melting point of 227 to 228 °C.
Work on CC(C)C(NC(=O)OC(C)(C)C)C(=O)NC(C(=O)OC1CC(n2cc(C=CBr)c(=O)[nH]c2=O)OC1CN=[N+]=[N-])C(C)C (stereo unspecified) yielded a melting point of 133 to 135 °C.
For Cc1nn2ccccc2c1C=O, the melting point was 77 to 79 °C.
Compound CNc1cc(F)c(C=O)cc1F has a melting point of 133 to 138 °C.
For CSc1cc2ccccc2cc1C=O, the melting point was 53.5 to 54.5 °C.
Work on CC(C)C(=O)C(O)(Cc1ccc(Cl)cc1Cl)c1cccnc1 (stereo unspecified) yielded a melting point of 144 to 145 °C.
CC(C)OC(=O)C1(F)C(=O)NC(=O)NC1O/N=C\c1ccco1 (stereo unspecified) gave a melting point of 131 to 134 °C.
Compound CC(Cc1c[nH]c2ccccc12)NC(=O)NCC1CCC(c2ccccc2)(N(C)C)CC1 (stereo unspecified) has a melting point of 140 to 146 °C.
In the case of O=C(Nc1nc2ccc(Sc3nnc4ccc(-c5cnn(CCOC6CCCCO6)c5)cn34)cc2s1)C1CC1 (stereo unspecified), the melting point is reported as 110 °C.
With Cn1c(=O)nc(NCCCN2CCN(C(c3ccccc3)c3ccccc3)CC2)c2ccccc21 the melting point was 121 to 124 °C.
Compound CCCCN1CCCC1=NC(=O)Nc1cccc(Cl)c1 has a melting point of 94 to 96 °C.
Work on Cn1c2c(c(=O)n(-c3ccc(Cl)c(C(=O)OC(C)(C)C)c3)c1=O)CCC2 yielded a melting point of 189 to 191 °C.
With COc1cccc(CNC(=O)c2cc3c(=O)n(CCC(=O)c4ccccc4)c(=O)n(C)c3s2)c1 the melting point was 188 to 191 °C.
CN(C)C(=O)c1nn(-c2ccncc2)c(=O)c2c1c1ccc(Cl)cc1n2C gave a melting point of 276 to 278 °C.
CSc1ccc(-c2nn(Cc3ccccc3)c(=S)cc2-c2ccc(F)cc2)cc1 gave a melting point of 108 °C.
In the case of CCOC(=O)C(C(=O)Nc1ccc(Br)cc1C)=S(C)C, the melting point is reported as 146 to 149 °C.
Work on CN(C)C(=O)/C=C/c1cnc2c(NC(=O)c3c(Cl)cccc3Cl)cccc2c1 yielded a melting point of 241 to 242 °C.
Work on COC(=O)c1ccc(Cc2c(Cl)n(C)c3ccc(CC(C)NC(=O)N(C)C)cc23)c(OC)c1 (stereo unspecified) yielded a melting point of 148 °C.
OCCOc1ccc(C2CCc3ccccc3O2)cc1 (stereo unspecified) showed a melting point of 84 to 85 °C.
